# Source: patent US20240166702A1, “COMPOSITIONS AND METHODS FOR TREATING BREAST CANCER” (Arizona Board of Regents on Behalf of The University of …, priority 2021, published 2024)
# Assays:
# [1] = tested on: WAP-TGFα tumors; test: Histology and protein lysate analysis of treated WAP-TGFα tumors; type: in vivo, mouse
# From the text: Mice were bred continuously to induce transgene expression and palpated weekly for tumor formation. […] A. Changes in tumor size from entry into study until end of study are shown for each individual tumor, (*) indicate tumors that entered the study at size greater than 500 mm^3, all other tumors entered the study at ˜100 mm^3. B. a Kaplan-Meier survival curve was generated showing when mice were sacrificed by either reaching tumor burden (2000 mm^3) or the end of the study (p=0.0002). C. Upon sacrifice tumors were harvested and fixed in 10% formalin and embedded in paraffin. Slides were stained with hematoxylin and eosin and imaged at 20×. D. Protein lysates were generated from tumors upon sacrifice and probed for the indicated proteins.
# (§1) A. Tumors (n=6 each treatment) from WAP-TGF mice as described in FIG. 1 were embedded and analyzed by NanoString. […] C. Tumors were dissected, lysed, and analyzed for apoptosis by probing for cleaved PARP and PDL1 expression.
# At the end of the study, mice were sacrificed and tissues were collected and fixed in 10% buffered formalin or homogenized in tissue lysis buffer. Tissues were sectioned and evaluated for changes to tissue morphology in response to peptide treatment (FIG. 3C). […] Representative tumors from the PARP-cleavage positive (cSNX1.3-treated) and negative (cPTD4-treated) are shown (FIG. 3C).
# (§2) Due to the increased leukocyte infiltration identified by histology of cSNX1.3-treated WAP-TGFα mice, NanoString analysis was performed using a panel that identifies alterations in immune regulators through localized analysis of transcript expression (PanCancer IO 360 Panel). […] These include several immune/inflammatory genes (such as CD2, TLR, CD28, H2-M3, Ly6C1, cytokines, and chemokines) as well as genes that could impact the metastatic potential of the microenvironment (including collagen 11A1 and MM P12). NanoString bioinformatics analysis further identified that these changes could be due to an increase in Cytotoxic T lymphocytes (CTLs) in cSNX1.3-treated samples compared to PTD4 (FIG. 8B). […] Therefore, tumor lysates were prepared and evaluated for apoptosis and a loss of the negative immune checkpoint receptor PDL1 (FIG. 8C). […] These changes could indicate an alteration from an immune-suppressive to an immune-surveilling microenvironment.
# [2] = tested on: BT20 cells; type: cell-based, human
# Experimental: (§3) B. MDA-MD-468 cells were transduced with an IPTG inducible shEGFR targeted against the 3′ UTR of EGFR. These cells were incubated with IPTG for the indicated number of days and lysates were generated to confirm knock down of EGFR. C. In tandem with B., cells were plated and incubated +/−IPTG for 2 days prior to drug treatment. […] After 5 days of IPTG and 3 days of peptide treatment viability was measured using an MTT assay.
# To investigate rt-EGFR, the role of the Sorting Nexins to regulate EGFR trafficking to the lysosome for degradation was investigated. To determine if SNX1 domains could be therapeutically mimicked, three SNX1-based peptides were synthesized, each of which was generated in tandem with a Cell Penetrating Peptide domain (PTD-4) to allow for intracellular penetration^19 (SNX1.1, 1.2 and 1.3, FIG. 2A). The ability of each peptide to reduce cell survival in the triple negative breast cancer cell line BT20 was evaluated.
# (§4) EGFR activity is known to promote the activity of other RTKs, including those in the EGFR family (HER2, HER3 and HER4) and the c-Met receptor (Puri and Salgia 2008; Linklater et al. 2016). Therefore, the ability of SNX1.3 to inhibit 2D migration was next evaluated, both in response to EGF as well as other migration-inducing ligands. […] Cells were plated on plastic and allowed to migrate into an artificial wound over 12 hours. […] To determine if this inhibitory effect was restricted to EGF-induced migration, the ability of SNX1.3 to impact neuregulin (NRG1) was also tested and hepatic growth factor (HGF)-induced migration. NRG is the ligand for HER3 and HER4, and HGF the ligand for the c-Met receptor, both of which are receptor tyrosine kinases. In addition, soluble hyaluronic acid (HA)-induced migration, the ligand for CD44, was also tested [a non-kinase membrane receptor that induces migration (Louderbough, Lopez, and Schroeder 2010)]. […] Note that all receptors undergo endocytosis, with the RTKs primarily undergoing clathrin-dependent endocytosis, while CD44 endocytosis is clathrin-independent (Dutta and Donaldson 2015).
# [3] = tested on: WAP-TGFα tumors; test: NanoString analysis of WAP-TGFα tumors (PanCancer IO 360 Panel); type: in vivo, mouse; settings: WAP-TGFα tumors, found by NanoString
# Experimental: as §1
# C. WAP-TGFα tumors treated with either SNX1.3 or cPTD4 were analyzed for NK cells using an anti-NKp46 antibody. Inset is 20×.
# as §2
# [4] = tested on: BT20 cells; test: 2D cell migration into an artificial wound, BT20 cells; type: cell-based, human
# Experimental: Area migrated was measured with ImageJ.
# as §4
# [5] = tested on: MDA-MB-468 cells; type: cell-based, human; settings: MDA-MB-468, 3 days, MTT assay
# Experimental: A. Peptide sequence alignment of modified and stabilized peptides (−) indicates conserved residues, (/) indicates a deleted residue. Modified residues used for staples are (S)-2-(((9H-flouren-9-yl) methoxy) caronylamino)-2-methyl-hept-6-enoic acid (5) and (R)-2-(((9H-flouren-9-yl) methoxy) caronylamino)-2-methyl-dec-9-enoic acid (8). PTD4=Protein Transduction Domain. Ac=acetylation of 5′ end and NH2=amidation of 3′ end. B. MDA-MB-468 cells were treated with 10 μM of the indicated peptide for 3 days. Cell viability was measured using an MTT assay. Vehicle control represents 100%. C. A predicted peptide structure of SNX1.3 was generated using SWISSMODEL with negative (blue) and positive (red) residues highlighted.
# as §3
# Predicted peptide structure including negatively (blue) and positively (red) charged residues was used to guide the modifications (FIG. 2C).
# [6] = tested on: MCF10A cells; type: cell-based
molecule,measurement,setting,value
YARAAARQARAKNHVIKYLETLLYSQQQLAKYWEAFL [SNX1.3],infiltration of cytotoxic T lymphocytes and neutrophils in tumors,[1]; compared to control mice,increased infiltration
same,overall PDL1 expression in tumors,[1]; tumor lysates,decrease
same,growth of BT20 cells,[2]; first screen of SNX1-based peptides,inhibits the growth
same,impact on viability via MTT,"[2]; in less than 24 hours, data not shown",no impact on viability
same,secretion of IL33,[3],induced
same,soluble hyaluronic acid (HA)-induced migration (CD44),"[4]; BT20, 12 hours, ligand for CD44",did not block
same,neuregulin (NRG1) induced migration,"[4]; BT20, 12 hours, ligand for HER3 and HER4",inhibited migration
same,hepatic growth factor (HGF)-induced migration,"[4]; BT20, 12 hours, ligand for c-Met receptor",inhibited migration
same,EGF induced migration,"[4]; BT20 on plastic, 12 hours",no migration was observed
"CNC(=O)CN1CCC(Oc2cc3c(Nc4cccc(Cl)c4F)ncnc3cc2OC)CC1 [Sapitinib, reference compound]","inhibition of cell survival, compared with Sapitinib",[5],inhibited cell survival
same,"inhibition of cell survival, compared with Sapitinib","[2]; BT20, 3 days, MTT assay",inhibited cell survival
same,impact on normal immortalized cells,[6],more effective at inhibiting cell growth in normal cells than in cancer cells
